In the supplement of paper PMC10307832:

Tests used:
Experiment in all cases: relative viability (nuclei count vs DMSO), 5 days (fraction); higher = more cells survive
[1] = compound: CC1CC(=O)N(C2=CN=C(N=C2N1C3CCCC3)NC4=C(C=C(C=C4)C(=O)NC5CCN(CC5)C)OC)C [NPK76-II-72-1] + Cc1cc(Nc2cc(N3CCN(C)CC3)nc(Sc3ccc(NC(=O)C4CC4)cc3)n2)n[nH]1 [Tozasertib] (partner 0.1 µM)
Summary of the method: (§1)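 One day after seeding in 1536-well plates, lung cancer cell lines were dosed by pin tool. Dosing was either single-drug or a fixed anchor-drug dose plus five library-drug doses (not always all listed) in √10 steps. After 5 days, nuclei were stained in one fix-and-stain step and counted on 4× images, and relative viability is the nuclei count of treated wells over that of vehicle wells, given as the median of duplicate plates.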

BI-2536 + Navitoclax = compound: CC[C@@H]1C(=O)N(C)c2cnc(Nc3ccc(C(=O)NC4CCN(C)CC4)cc3OC)nc2N1C1CCCC1 [BI-2536] + CC1(C)CCC(c2ccc(Cl)cc2)=C(CN2CCN(c3ccc(C(=O)NS(=O)(=O)c4ccc(N[C@H](CCN5CCOCC5)CSc5ccccc5)c(S(=O)(=O)C(F)(F)F)c4)cc3)CC2)C1 [Navitoclax] (partner 0.5 µM)
Summary of the method: as §1

BI-2536 + Crizotinib = compound: CC[C@@H]1C(=O)N(C)c2cnc(Nc3ccc(C(=O)NC4CCN(C)CC4)cc3OC)nc2N1C1CCCC1 [BI-2536] + C[C@@H](Oc1cc(-c2cnn(C3CCNCC3)c2)cnc1N)c1c(Cl)ccc(F)c1Cl [Crizotinib] (partner 1 µM)
Summary of the method: as §1

BI-2536 + Pemetrexed = compound: CC[C@@H]1C(=O)N(C)c2cnc(Nc3ccc(C(=O)NC4CCN(C)CC4)cc3OC)nc2N1C1CCCC1 [BI-2536] + Nc1nc2[nH]cc(CCc3ccc(C(=O)N[C@@H](CCC(=O)O)C(=O)O)cc3)c2c(=O)[nH]1 [Pemetrexed] (partner 0.2 µM)
Summary of the method: as §1

Cell Line	relative viability ([1]; first compound 0.01 µM)	relative viability ([1]; first compound 0.03162 µM)	relative viability ([1]; first compound 0.1 µM)	relative viability ([1]; first compound 0.3162 µM)	relative viability ([1]; first compound 1 µM)	relative viability (BI-2536 + Navitoclax; first compound 0.01 µM)	relative viability (BI-2536 + Navitoclax; first compound 0.03162 µM)	relative viability (BI-2536 + Navitoclax; first compound 0.1 µM)	relative viability (BI-2536 + Navitoclax; first compound 0.3162 µM)	relative viability (BI-2536 + Navitoclax; first compound 1 µM)	relative viability (BI-2536 + Crizotinib; first compound 0.01 µM)	relative viability (BI-2536 + Crizotinib; first compound 0.03162 µM)	relative viability (BI-2536 + Crizotinib; first compound 0.1 µM)	relative viability (BI-2536 + Crizotinib; first compound 0.3162 µM)	relative viability (BI-2536 + Crizotinib; first compound 1 µM)	relative viability (BI-2536 + Pemetrexed; first compound 0.01 µM)	relative viability (BI-2536 + Pemetrexed; first compound 0.03162 µM)	relative viability (BI-2536 + Pemetrexed; first compound 0.1 µM)	relative viability (BI-2536 + Pemetrexed; first compound 0.3162 µM)	relative viability (BI-2536 + Pemetrexed; first compound 1 µM)
H3255	0.623	0.729	0.734	0.434	0.673	0.292	0.359	0.196	0.113	0.119	0.909	0.763	0.515	0.196	0.24	0.543	0.528	0.492	0.248	0.268
201T	0.884	0.948	0.984	0.939	0.976	1.18	1.16	1.21	0.939	0.33	1.02	1.03	1	0.66	0.358	0.362	0.302	0.298	0.208	0.224
NCI-H2126	0.8	0.812	0.855	0.783	0.888	0.847	0.843	0.75	0.328	0.25	1.04	0.85	0.85	0.341	0.253	0.747	0.74	0.369	0.286	0.217
HOP-62	0.333	0.382	0.397	0.328	0.413	1	1.08	0.967	0.0716	0.0536	0.986	0.949	0.78	0.134	0.12	0.394	0.29	0.225	0.109	0.151
CAL-12T	0.33	0.324	0.314	0.25	0.363	1.22	1.17	0.834	0.164	0.144	0.532	0.295	0.409	0.128	0.155	1.04	0.955	0.623	0.195	0.131
NCI-H520	0.36	0.437	0.429	0.423	0.487	1.02	1.03	0.366	0.222	0.2	0.764	0.323	0.202	0.184	0.117	0.666	0.32	0.204	0.179	0.189
NCI-H1755	0.669	0.663	0.526	0.552	0.653	1	0.909	0.903	0.152	0.127	0.893	0.751	0.594	0.315	0.25	0.456	0.371	0.295	0.359	0.291
NCI-H2023	0.326	0.366	0.403	0.308	0.44	0.984	0.92	0.723	0.0972	0.0716	0.582	0.493	0.346	0.0851	0.0743	0.225	0.197	0.124	0.0926	0.0873
NCI-H2009	0.707	0.766	0.807	0.669	0.841	1.14	1.05	0.7	0.121	0.0887	0.962	0.696	0.287	0.191	0.16	1.07	1	0.674	0.223	0.274
